From PubChem BioAssay (NCI)
Where “and” joins values, the source holds several entries; their conditions need not be identical. Equal entries are not always repeated.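 Exposure lasted 48 hours, with cells grown in 96-well plates and compounds tested at five concentrations. Abbreviation: GI50, concentration required for 50% inhibition of growth. At the TGI there is no net growth.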

Experiments:
Assay in all cases: growth of human tumour cells (NCI), 48 h
BT-549 breast = test system: BT-549 breast
CAKI-1 renal = test system: CAKI-1 renal
CCRF-CEM leukemia = test system: CCRF-CEM leukemia
HCT-116 colon = test system: HCT-116 colon
HOP-62 NSCLC = test system: HOP-62 NSCLC
K-562 leukemia = test system: K-562 leukemia
LOX IMVI melanoma = test system: LOX IMVI melanoma
MCF7 breast = test system: MCF7 breast
MOLT-4 leukemia = test system: MOLT-4 leukemia
NCI-H23 lung = test system: NCI-H23 lung
NCI-H460 lung = test system: NCI-H460 lung
PC-3 prostate = test system: PC-3 prostate
SF-295 CNS = test system: SF-295 CNS
SN12C renal = test system: SN12C renal
SNB-75 CNS = test system: SNB-75 CNS
T-47D breast = test system: T-47D breast
UACC-62 melanoma = test system: UACC-62 melanoma
UO-31 renal = test system: UO-31 renal

Compound	TGI (BT-549 breast)	TGI (CAKI-1 renal)	TGI (CCRF-CEM leukemia)	TGI (HCT-116 colon)	TGI (HOP-62 NSCLC)	TGI (K-562 leukemia)	TGI (LOX IMVI melanoma)	TGI (MCF7 breast)	TGI (MOLT-4 leukemia)	TGI (NCI-H23 lung)	TGI (NCI-H460 lung)	TGI (PC-3 prostate)	TGI (SF-295 CNS)	TGI (SN12C renal)	TGI (SNB-75 CNS)	TGI (T-47D breast)	TGI (UACC-62 melanoma)	TGI (UO-31 renal)	GI50 (MCF7 breast)	GI50 (PC-3 prostate)
CC1=NN(c2nc(N)nc(CN3CCOCC3)n2)C(C)(C)C1	> 100 µM	40.1 µM	90.8 µM	> 100 µM	> 100 µM	> 100 µM	28.5 µM	> 100 µM	> 100 µM	> 100 µM	> 100 µM	> 100 µM	> 100 µM	> 100 µM	> 100 µM	> 100 µM	> 100 µM	33.3 µM	–	–
COc1ccc(C(CC2(c3ccc(OC)cc3)SCCCS2)NC(C)=O)cc1 (stereo not drawn)	> 100 µM	> 100 µM	> 100 µM	> 100 µM	> 100 µM	> 100 µM	> 100 µM	> 100 µM	84.3 µM	> 100 µM	> 100 µM	69 µM	> 100 µM	96.8 µM	> 100 µM	66.5 µM	> 100 µM	> 100 µM	–	–
C=C(Cl)C(Cl)(CBr)CCC(Br)C(C)(C)Br (stereo not drawn)	20.8 µM	5.3 µM	23.5 µM	4.04 µM	1.83 µM	16.3 µM	33.3 µM	3.34 µM	25.3 µM	31.5 µM	3.71 µM	5.68 µM	3.78 µM	19.7 µM	5.45 µM	7.42 µM	28.5 µM	20.1 µM	–	–
C[C@H](C1CC(C)(O)C(C)(O)C(O)O1)[C@H]1CC[C@H]2[C@@H]3[C@@H]4O[C@@H]4[C@@]4(O)CC=CC(=O)[C@]4(C)[C@H]3CC[C@]12C (stereo partly drawn)	> 50 µM	> 50 µM	> 50 µM	> 50 µM	> 50 µM	> 50 µM	> 50 µM	> 50 µM	> 50 µM	> 50 µM	> 50 µM	> 50 µM	> 50 µM	> 50 µM	> 50 µM	> 50 µM	> 50 µM	> 50 µM	–	–
CO/C=C/C=C(\C#N)C(=O)OC	> 100 µM	> 100 µM	> 100 µM	> 100 µM	> 100 µM	> 100 µM	> 100 µM	> 100 µM	> 100 µM	> 100 µM	> 100 µM	> 100 µM	> 100 µM	> 100 µM	> 100 µM	> 100 µM	> 100 µM	> 100 µM	–	–
CCOC(=O)c1cc(C2CCN(c3ccccc3)C2=O)c(/C(O)=C/C(C)=O)[nH]1 (stereo not drawn)	> 100 µM	> 100 µM	> 100 µM	> 100 µM	> 100 µM	> 100 µM	> 100 µM	> 100 µM	> 100 µM	> 100 µM	> 100 µM	> 100 µM	> 100 µM	> 100 µM	> 100 µM	> 100 µM	> 100 µM	> 100 µM	–	–
O=c1ccc2ccc(OP(=O)(O)O)cc2o1	> 100 µM	> 100 µM	> 100 µM	> 100 µM	> 100 µM	> 100 µM	> 100 µM	> 100 µM	> 100 µM	> 100 µM	> 100 µM	> 100 µM	> 100 µM	> 100 µM	> 100 µM	> 100 µM	> 100 µM	> 100 µM	–	–
Cc1cc(NC2=CC(=O)C(=O)c3ccccc32)no1	13.4 µM	17.1 µM	40.9 µM	34.4 µM	32.5 µM	20.1 µM	4.06 µM	7.66 µM	31.7 µM	39.8 µM	23.3 µM	53.9 µM	21.6 µM	7.1 µM	23 µM	32.7 µM	9.27 µM	20.4 µM	–	–
CC1OC(OC2C(OC(=O)[C@]34CCC(C)(C)C[C@H]3C3=CC[C@@H]5[C@@]6(C)CC[C@H](OC7OC(C(=O)O)C(O)C(O)C7O)C(C)(C)[C@@H]6CC[C@@]5(C)[C@]3(C)C[C@H]4O)OCC(O)C2O)C(O)C(O)C1OC1OCC(O)C(O)C1O (stereo partly drawn)	26.9 µM and 29.8 µM	25.6 µM and 21.6 µM	36.1 µM and 61.2 µM	28.1 µM and 22.1 µM	32.7 µM and 28.3 µM	35.4 µM and 36.3 µM	30.9 µM and 29.5 µM	29.4 µM and 17.8 µM	34.6 µM and 74.8 µM	18.2 µM and 20.7 µM	48.3 µM and 33.7 µM	23.7 µM and 18.6 µM	29.6 µM and 22.1 µM	16 µM and 6.05 µM	29.9 µM and 31.3 µM	96.2 µM and 30.6 µM	32.7 µM and 30.1 µM	24.1 µM and 20.1 µM	14.4 µM and 5.24 µM	11.3 µM and 5.07 µM
Cc1ccc([N+](=O)[O-])cc1S(=O)(=O)Nc1ccc(C2=NN(S(=O)(=O)c3cc([N+](=O)[O-])ccc3C)C(c3ccccc3)C2)cc1 (stereo not drawn)	57.2 µM	> 100 µM	> 100 µM	51.8 µM	> 100 µM	> 100 µM	> 100 µM	> 100 µM	> 100 µM	60.5 µM	55.5 µM	98.8 µM	> 100 µM	> 100 µM	> 100 µM	> 100 µM	44.7 µM	> 100 µM	–	–
C=CCN(c1cc(OC)c(NC(C)=O)cc1[N+](=O)[O-])S(C)(=O)=O	> 100 µM	> 100 µM	> 100 µM	> 100 µM	> 100 µM	> 100 µM	> 100 µM	> 100 µM	> 100 µM	> 100 µM	> 100 µM	> 100 µM	> 100 µM	> 100 µM	> 100 µM	> 100 µM	> 100 µM	> 100 µM	–	–
COC(=O)c1c([N+](=O)[O-])ncn1[C@H]1OC[C@@H](OC(C)=O)[C@@H](OC(C)=O)[C@@H]1OC(C)=O	> 100 µM	> 100 µM	> 100 µM	> 100 µM	> 100 µM	> 100 µM	> 100 µM	> 100 µM	> 100 µM	> 100 µM	> 100 µM	> 100 µM	> 100 µM	> 100 µM	> 100 µM	> 100 µM	> 100 µM	> 100 µM	–	–
Cc1[nH]c(=O)nc2nc3cc(Cl)cc(Cl)c3c(NC(C)(CO)CO)c12	> 100 µM	> 100 µM	> 100 µM	> 100 µM	83.7 µM	> 100 µM	> 100 µM	> 100 µM	> 100 µM	> 100 µM	> 100 µM	> 100 µM	> 100 µM	> 100 µM	38.6 µM	> 100 µM	> 100 µM	> 100 µM	–	–
CCN1CCC(O)(c2ccc(Oc3ccc(Cl)cc3)cc2)C(C(=O)c2ccc(Oc3ccc(Cl)cc3)cc2)C1 (stereo not drawn)	29.7 µM	27.3 µM	20.9 µM	12.6 µM	21.3 µM	> 100 µM	16.5 µM	19.9 µM	43.9 µM	25.7 µM	14.9 µM	21.3 µM	27.4 µM	26.9 µM	26.2 µM	36.6 µM	24.8 µM	28.1 µM	–	–
CC[C@]12C=CCN3CC[C@@]4(c5cc(N=O)c(OC)cc5N(C)[C@H]4[C@@](O)(C(=O)OC)[C@@H]1OC(C)=O)[C@@H]32	> 100 µM	> 100 µM	74.1 µM	> 100 µM	> 100 µM	> 100 µM	> 100 µM	> 100 µM	> 100 µM	> 100 µM	> 100 µM	> 100 µM	> 100 µM	> 100 µM	> 100 µM	> 100 µM	> 100 µM	> 100 µM	–	–
Cc1cc(S(=O)(=O)Nc2n[nH]c(-c3ccc(Cl)cc3)n2)c(SSc2cc(Cl)c(C)cc2S(=O)(=O)Nc2n[nH]c(-c3ccc(Cl)cc3)n2)cc1Cl	> 100 µM	> 100 µM	60.6 µM	> 100 µM	> 100 µM	62.3 µM	64.3 µM	> 100 µM	54.2 µM	> 100 µM	62.4 µM	84.6 µM	> 100 µM	> 100 µM	76.1 µM	42.2 µM	47 µM	81.9 µM	–	–
COc1ccc(S(=O)(=O)N2C(=O)CCC2C(=O)NC(N)=O)cc1 (stereo not drawn)	> 100 µM	> 100 µM	> 100 µM	> 100 µM	> 100 µM	> 100 µM	> 100 µM	> 100 µM	> 100 µM	> 100 µM	> 100 µM	> 100 µM	> 100 µM	> 100 µM	1.55 µM	> 100 µM	> 100 µM	> 100 µM	–	–
COc1cc(OC)cc(OCc2nc3cc(C(F)(F)F)ccc3nc2-c2ccccc2)c1	> 100 µM	> 100 µM	> 100 µM	> 100 µM	> 100 µM	> 100 µM	> 100 µM	> 100 µM	> 100 µM	> 100 µM	> 100 µM	> 100 µM	> 100 µM	> 100 µM	> 100 µM	> 100 µM	> 100 µM	> 100 µM	–	–
O=c1nc2n3c4c(cccc4nc-2c(=O)[nH]1)CCC3	> 100 µM	> 100 µM	> 100 µM	> 100 µM	> 100 µM	> 100 µM	> 100 µM	> 100 µM	> 100 µM	> 100 µM	> 100 µM	> 100 µM	> 100 µM	> 100 µM	> 100 µM	> 100 µM	> 100 µM	> 100 µM	–	–
COc1ccc2c(c1)Cc1c(NCCN(C)C)ccc(C(=O)NCCCN(C)CCCNC(=O)c3ccc(NCCN(C)C)c4c3Nc3ccc(OC)cc3C4)c1N2	1.5 µM	11.9 µM	5.49 µM	0.239 µM	1.02 µM	3.14 µM	0.766 µM	0.615 µM	2.62 µM	0.581 µM	0.175 µM	0.838 µM	3.52 µM	0.624 µM	0.103 µM	12.5 µM	0.365 µM	14.2 µM	–	–
COc1ccc(N=c2oc3ccccc3cc2C(N)=O)cc1	> 100 µM	32.4 µM	> 100 µM	> 100 µM	34.8 µM	> 100 µM	> 100 µM	87.7 µM	> 100 µM	> 100 µM	> 100 µM	> 100 µM	75.1 µM	> 100 µM	> 100 µM	> 100 µM	> 100 µM	14.8 µM	–	–
CNC(=O)C(C)NC(=O)C(Cc1ccccc1)NC(=O)c1ccccc1 (stereo not drawn)	> 100 µM	> 100 µM	> 100 µM	> 100 µM	> 100 µM	> 100 µM	> 100 µM	> 100 µM	> 100 µM	> 100 µM	> 100 µM	> 100 µM	> 100 µM	> 100 µM	> 100 µM	> 100 µM	> 100 µM	> 100 µM	–	–
